Entries after “also recorded” stand apart in the source; their conditions may differ. Peptide text beside a SMILES is read from it. * marks the point of attachment. Cbz = O=C(OCc1ccccc1)*
Tested on: Ub^G76V-GFP reporter (ubiquitin-proteasome system) in transiently transfected cells
Experiment: UPS reporter assay (Ub^G76V-GFP, flow cytometry), functionality control with proteasomal inhibitor
Assay type: cell-based
Conditions: 5 μM MG-132, 24 hours
Experimental: FIGS. 12A-12C show flow-cytometric analysis of untransfected cells (12A), Ub^G76V-GFP transfected cells (12B), and Ub^G76V-GFP transfected cells treated for 24 hours with 5 μM of the proteasomal inhibitor, MG-132 (12C).
Experiments were conducted during development of embodiments of the present invention to investigate the functional consequences of the mutant ubiquilin2 in protein degradation through the ubiquitin-proteasome system (UPS) was investigated. The UPS reporter substrate Ubiquitin^G76V-Green Fluorescent Protein (Ub^G76V-GFP) was used to test the effects of mutant ubiquilin2 on the ubiquitin-mediated protein degradation. Two mutations at two different sites were tested (P497H and P506T) using the Ub^G76V-GFP reporter system. […]
SH-SYSY and Neuro2a cells were grown in 24-well plates and double-transfected with the UPS reporter (20) vector containing UbG76V-GFP (Addgene plasmid #11941) and a dual expression vector containing DsRed2 with either wild-type or mutant Ubiquilin 2. […] All flow cytometric data were collected and analyzed using a MoFlo cell sorter and Summit software (DakoCytomation, Fort Collins, Colo.). […] At least 500 such events were recorded. […]

## CC(C)C[C@@H](C=O)NC(=O)[C@H](CC(C)C)NC(=O)[C@H](CC(C)C)NC(=O)OCc1ccccc1 [MG-132] (Cbz-Leu-Leu-Leu-aldehyde)
  GFP fluorescence (FL1) intensity / accumulation of the Ub^G76V-GFP signal: marked increase in GFP fluorescence (FL1) intensity; also recorded: remarkable accumulation of the Ub^G76V-GFP signal

Reference: US11041205B2, “Molecular targets for ALS and related disorders” (Northwestern University, priority 2010, dated 2021)
